From patent publication US20230321094A1, “COMBINATION THERAPIES WITH OLIG2 INHIBITORS” (Curtana Pharmaceuticals, Inc., priority 2020, published 2023)

Tested on: NX18 cells
Test: Glioblastoma neurosphere cell viability with the test compound and an mTOR inhibitor, Cell TiterGlo
Format: cell-based
Details: NX18 neurospheres, 72 hours, normalized to DMSO vehicle; for cytotoxicity at 0.01 µM: mTOR inhibitor alone, final concentration 10 nM, read-out: percent inhibition of cell viability, mTOR inhibitor alone; for percent inhibition of cell viability, Combined: named mTOR inhibitor (10 nM) combined with test compound @ 3 μM
Procedure: After another 72 hours, cell viability was determined using the Cell TiterGlo kit (#G7570, Promega, Madison. WI) following the manufacturer's instructions on a Tecan M200 Pro Plate Reader (Tecan, Mannedorf, CH). Percent viable cells were normalized against vehicle control (DMSO set as 100%).

Row | Structure (SMILES) | cytotoxicity at 0.01 µM [%] | percent inhibition of cell viability, Combined [%] | cytotoxicity at 3 µM (test compound alone at 3 μM, read-out: percent inhibition of cell viability, Test compound @ 3 μM) [%]
1 | CO[C@H]1C[C@@H]2CC[C@@H](C)[C@@](O)(O2)C(=O)C(=O)N2CCCC[C@H]2C(=O)O[C@H]([C@H](C)C[C@@H]2CC[C@@H](O)[C@H](OC)C2)CC(=O)[C@H](C)/C=C(\C)[C@@H](O)[C@@H](OC)C(=O)[C@H](C)C[C@H](C)/C=C/C=C/C=C/1C [Rapamycin] | 41 | 61 | 
2 | CO[C@H]1C[C@@H]2CC[C@@H](C)[C@@](O)(O2)C(=O)C(=O)N2CCCC[C@H]2C(=O)O[C@H]([C@H](C)C[C@@H]2CC[C@@H](OCCO)[C@H](OC)C2)CC(=O)[C@H](C)/C=C(\C)[C@@H](O)[C@@H](OC)C(=O)[C@H](C)C[C@H](C)/C=C/C=C/C=C/1C [Everolimus] | 45 | 60 | 
3 | Cc1cc(NCCCN(C)C)nc(NC(=O)Nc2ccc(Cl)c(Cl)c2)n1 [Test compound] |  |  | 30
